# Key:
# Assay in all cases: graphene oxide fluorescence desorption assay
# [1] = test system: OA-08 (DNA, aptamer) CAGCTCAGAAGCTTGATCCTAGCCCGCCAACCTACATCATCTACACTTCGTTTTAACCTTGACTCGAAGTCGTGCATCTG; conditions: 150 mM Na+, 2 mM Mg2+, binding buffer 50 mM Tris, pH 7.4; for binding: 1 μM compound tested, 150 nM aptamer
# [2] = test system: OA-17 (DNA, aptamer) CAGCTCAGAAGCTTGATCCTTTCCCCAAACTGTTGCAACCTCTGCTTTCTTTCGCTATATGACTCGAAGTCGTGCATCTG; conditions: 150 mM Na+, 2 mM Mg2+, binding buffer 50 mM Tris, pH 7.4; for binding: 1 μM compound tested, 150 nM aptamer
# [3] = test system: OA-27 (DNA, aptamer) CAGCTCAGAAGCTTGATCCTATTTGACCATGTCGAGGGAGACGCGCAGTCGCTACCACCTGACTCGAAGTCGTGCATCTG; conditions: 150 mM Na+, 2 mM Mg2+, binding buffer 50 mM Tris, pH 7.4; for binding: 1 μM compound tested, 150 nM aptamer
# [4] = test system: OA-01 (DNA, aptamer) CAGCTCAGAAGCTTGATCCTGCACACGAGTTACGCCCCATCGTTGTCCTTTCCCTCACGTGACTCGAAGTCGTGCATCTG; conditions: 150 mM Na+, 2 mM Mg2+; binding buffer 50 mM Tris, pH 7.4; 1 μM OA, 5–200 nM aptamer
# [5] = test system: OA-09 (DNA, aptamer) CAGCTCAGAAGCTTGATCCTTAGCACACAACCCTTTGATTGGGATATCTCATCCCTCGGACTCGAAGTCGTGCATCTG; conditions: 150 mM Na+, 2 mM Mg2+; binding buffer 50 mM Tris, pH 7.4; 1 μM OA, 5–200 nM aptamer
# [6] = test system: OA-14 (DNA, aptamer) CAGCTCAGAAGCTTGATCCTATGCTTCGTGGGACAAGAGTTGACACATCGTCGTTAGGTTGACTCGAAGTCGTGCATCTG; conditions: 150 mM Na+, 2 mM Mg2+; binding buffer 50 mM Tris, pH 7.4; 1 μM OA, 5–200 nM aptamer
# [7] = test system: OA-21 (DNA, aptamer) CAGCTCAGAAGCTTGATCCTGGATGACCGTTGCAAGCGATCCATTGTTGTTTGATCATGTGACTCGAAGTCGTGCATCTG; conditions: 150 mM Na+, 2 mM Mg2+; binding buffer 50 mM Tris, pH 7.4; 1 μM OA, 5–200 nM aptamer
# [8] = test system: OA-22 (DNA, aptamer) CAGCTCAGAAGCTTGATCCTGGCCCCGATATGATTGCTATCATTCGCATCTGCTTCACTTGACTCGAAGTCGTGCATCTG; conditions: 150 mM Na+, 2 mM Mg2+; binding buffer 50 mM Tris, pH 7.4; 1 μM OA, 5–200 nM aptamer
# [9] = test system: OA27-1 (DNA, aptamer) ATTTGACCATGTCGAGGGAGACGCGCAGTCGCTACCACCT; conditions: 150 mM Na+, 2 mM Mg2+; binding buffer 50 mM Tris, pH 7.4; FAM-aptamer, GO separation
compound,measurement,setting,value
C=C1[C@@H](O)[C@@H]2O[C@]3(CC[C@H](/C=C/[C@@H](C)[C@@H]4CC(C)=C[C@@]5(O[C@H](C[C@@](C)(O)C(=O)O)CC[C@H]5O)O4)O3)CC[C@H]2O[C@@H]1[C@@H](O)C[C@H](C)[C@H]1O[C@@]2(CC[C@H]1C)OCCC[C@H]2C,binding,[1],yes
same,binding,[2],yes
same,binding,[3],no
C/C(=C/C=C/[C@@H](C)C(=O)O)[C@H]1CN[C@H](C(=O)O)[C@H]1CC(=O)O,binding,[3],no
C=C1[C@@H](O)[C@@H]2O[C@]3(CC[C@H](/C=C/[C@@H](C)[C@@H]4CC(C)=C[C@@]5(O[C@H](C[C@@](C)(O)C(=O)O)CC[C@H]5O)O4)O3)CC[C@H]2O[C@@H]1[C@@H](O)C[C@H](C)[C@H]1O[C@@]2(CCCCO2)CC[C@H]1C,Kd,[4],125 ± 22 nM
same,Kd,"[1]; 1 μM OA, 5–200 nM aptamer",88 ± 30 nM
same,Kd,[5],127 ± 39 nM
same,Kd,[6],1772 ± 543 nM
same,Kd,"[2]; 1 μM OA, 5–200 nM aptamer",79 ± 20 nM
same,Kd,[7],118 ± 18 nM
same,Kd,[8],70 ± 16 nM
same,Kd,"[3]; 1 μM OA, 5–200 nM aptamer",42 ± 4 nM
same,Kd,[9],40 nM
C=C1[C@@H](O)[C@@H]2O[C@]3(CC[C@H](/C=C/[C@@H](C)[C@@H]4CC(C)=C[C@@]5(O[C@H](C[C@@](C)(O)C(=O)O)CC[C@H]5O)O4)O3)CC[C@H]2O[C@@H]1[C@@H](O)C[C@H](C)[C@@H]1CCC[C@@]2(OCCC[C@H]2C)O1,binding,[1],yes
same,binding,[2],yes
same,binding,[3],no

# Source: publication PMC4761938 (2016)
